Measured values published in patent US7759345B2, “Antitumoral derivatives of ET-743” (priority 2001, dated 2010).

How the values were obtained:
[1] = system: Skeletal
Source text: (§2) Toxicity was asssessed by the methods reported in Toxicology in Vitro, 15 (2001) 571-577, J. Luber Narod et al.: “Evaluation of the use of in vitro methodolodies as tools for screening new compounds for potential in vivo toxicity”.

[2] = system: IGROV-1; experiment: Inhibition of cells growth by colorimetric assay (SRB), IGROV-1; format: cell-based; details: for GI50 / CC50: Homo sapiens, IGROV-1, 48 h; for GI50 / IGROV TGI: SRB assay, 48 hours exposure; for GI50: read-out: IGROV GI50; for CC50: read-out: IGROV LC50, SRB assay, 48 hours exposure
Method in brief: (§1)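 Compound in DMSO/EtOH/PBS vehicle was applied at 10 to 10^−8 μg/ml to attached cells (5×10^3/well, 18 h) for 48 h. Cells were then fixed with cold TCA and stained with 0.4% SRB in 1% acetic acid.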

[3] = system: Heart
Source text: as §2

[4] = system: HT-29; experiment: Inhibition of cells growth by colorimetric assay (SRB), HT-29; format: cell-based; details: for GI50 / LC50 (concentration for 50% cell killing): Homo sapiens, HT-29, 48 h; for GI50 / HT-29 TGI: SRB assay, 48 hours exposure; for GI50: read-out: HT-29 GI50; for LC50 (concentration for 50% cell killing): read-out: HT-29 LC50, SRB assay, 48 hours exposure
Method in brief: as §1

[5] = system: IGROV-ET; experiment: Inhibition of cells growth by colorimetric assay (SRB), IGROV-ET; format: cell-based; details: for GI50 / CC50: Homo sapiens, 48 h; for GI50 / IGROV-ET TGI: SRB assay, 48 hours exposure; for GI50: read-out: IGROV-ET GI50; for CC50: read-out: IGROV-ET LC50, SRB assay, 48 hours exposure
Method in brief: as §1

[6] = system: SK-MEL-28; experiment: Inhibition of cells growth by colorimetric assay (SRB), SK-MEL-28; format: cell-based; details: for GI50 / CC50: Homo sapiens, SK-MEL-28, 48 h; for GI50 / MEL-28 TGI: SRB assay, 48 hours exposure; for GI50: read-out: MEL-28 GI50; for CC50: read-out: MEL-28 LC50, SRB assay, 48 hours exposure
Method in brief: as §1

[7] = system: Myelo
Source text: as §2

[8] = system: LoVo; experiment: Inhibition of cells growth by colorimetric assay (SRB), LoVo; format: cell-based; details: for GI50 / LC50 (concentration for 50% cell killing): Homo sapiens, LoVo, 48 h; for GI50 / LOVO TGI: SRB assay, 48 hours exposure; for GI50: read-out: LOVO GI50; for LC50 (concentration for 50% cell killing): read-out: LOVO LC50, SRB assay, 48 hours exposure
Method in brief: as §1

[9] = system: SK-OV-3; experiment: Inhibition of cells growth by colorimetric assay (SRB), SK-OV-3; format: cell-based; details: for GI50 / LC50: Homo sapiens, SK-OV-3, 48 h; for GI50 / SK-OV3 TGI: SRB assay, 48 hours exposure; for GI50: read-out: SK-OV3 GI50; for LC50: read-out: SK-OV3 LC50, SRB assay, 48 hours exposure
Method in brief: as §1

[10] = system: A-549; experiment: Inhibition of cells growth by colorimetric assay (SRB), A-549; format: cell-based; details: for GI50 / LC50 (concentration for 50% cell killing): Homo sapiens, A549, 48 h; for GI50 / A-549 TGI: SRB assay, 48 hours exposure; for GI50: read-out: A-549 GI50; for LC50 (concentration for 50% cell killing): read-out: A-549 LC50, SRB assay, 48 hours exposure
Method in brief: as §1

[11] = system: HMEC1; experiment: Inhibition of cells growth by colorimetric assay (SRB), HMEC1; format: cell-based; details: for GI50 / LC50: Homo sapiens, HMEC-1, 48 h; for GI50 / HMEC-1 TGI: SRB assay, 48 hours exposure; for GI50: read-out: HMEC-1 GI50; for LC50: read-out: HMEC-1 LC50, SRB assay, 48 hours exposure
Method in brief: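 Cells in RPMI 1640 with 10% FBS were seeded at 5×10^3 per well, allowed 18 h to attach, then exposed to compound (10 to 10^−8 μg/ml, in DMSO/EtOH/PBS 0.5:0.5:99) for 48 h. After TCA fixation and SRB staining, bound dye was solubilized in Tris and OD read at 490 nm; GI, TGI and LC derived from triplicates.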

[12] = system: Liver
Source text: as §2

[13] = system: LoVo-Dox; experiment: Inhibition of cells growth by colorimetric assay (SRB), LoVo-Dox; format: cell-based; details: for GI50 / CC50: Homo sapiens, 48 h; for GI50 / LOVO-DOX TGI: SRB assay, 48 hours exposure; for GI50: read-out: LOVO-DOX GI50; for CC50: read-out: LOVO-DOX LC50, SRB assay, 48 hours exposure
Method in brief: as §1

[14] = system: LNCaP; experiment: Inhibition of cells growth by colorimetric assay (SRB), LNCaP; format: cell-based; details: for GI50 / CC50: Homo sapiens, LNCaP, 48 h; for GI50: read-out: LNCAP GI50, SRB assay, 48 hours exposure; for CC50: read-out: LNCAP LC50, SRB assay, 48 hours exposure; for LNCAP TGI: SRB assay, 48 hours exposure
Method in brief: as §1

[15] = system: Kidney
Source text: as §2

[16] = system: SK-BR-3; experiment: Inhibition of cells growth by colorimetric assay (SRB), SK-BR-3; format: cell-based; details: for GI50 / CC50: Homo sapiens, SK-BR-3, 48 h; for GI50 / SK-BR3 TGI: SRB assay, 48 hours exposure; for GI50: read-out: SK-BR3 GI50; for CC50: read-out: SK-BR3 LC50, SRB assay, 48 hours exposure
Method in brief: as §1

[17] = system: K-562; experiment: Inhibition of cells growth by colorimetric assay (SRB), K-562; format: cell-based; details: for GI50 / LC50 (50% cell killing): Homo sapiens, K562, 48 h; for GI50 / K-562 TGI: SRB assay, 48 hours exposure; for GI50: read-out: K-562 GI50; for LC50 (50% cell killing): read-out: K-562 LC50, SRB assay, 48 hours exposure
Method in brief: as §1

[18] = system: PANC-1; experiment: Inhibition of cells growth by colorimetric assay (SRB), PANC-1; format: cell-based; details: for GI50 / LC50 (concentration for 50% net cell kill): Homo sapiens, PANC-1, 48 h; for GI50 / PANC-1 TGI: SRB assay, 48 hours exposure; for GI50: read-out: PANC-1 GI50; for LC50 (concentration for 50% net cell kill): read-out: PANC-1 LC50, SRB assay, 48 hours exposure
Method in brief: as §1

[19] = system: DU-145; experiment: Inhibition of cells growth by colorimetric assay (SRB), DU-145; format: cell-based; details: for GI50 / CC50: Homo sapiens, DU-145, 48 h; for GI50 / DU-145 TGI: SRB assay, 48 hours exposure; for GI50: read-out: DU-145 GI50; for CC50: read-out: DU-145 LC50, SRB assay, 48 hours exposure
Method in brief: as §1

COc1cc2c(cc1O)CCN[C@]21CS[C@@H]2c3c(OC(=O)CCCCC4SCC5NC(=O)NC54)c(C)c4c(c3[C@H](COC1=O)N1C2[C@H]2c3c(cc(C)c(OC)c3O)C[C@@H]([C@@H]1O)N2C)OCO4 (stereo partly shown) [Compound 171]
Toxicity Data Skeletal [1]: 3.58E-08 | GI50 [2]: 1.93 nM | CC50 [2]: 8.8 nM | IGROV TGI [2]: 4.12E-09 | Toxicity Data Heart [3]: 3.13E-08 | GI50 [4]: 3.91 nM | LC50 (concentration for 50% cell killing) [4]: 10.6 µM | HT-29 TGI [4]: 3.24E-08 | GI50 [5]: 225 nM | CC50 [5]: 10.6 µM | IGROV-ET TGI [5]: 7.08E-07 | GI50 [6]: 5.65 nM | CC50 [6]: 102 nM | MEL-28 TGI [6]: 2.33E-08 | Toxicity Data Myelo [7]: 1.37E-07 | GI50 [8]: 23.7 nM | LC50 (concentration for 50% cell killing) [8]: 10.6 µM | LOVO TGI [8]: 7.66E-08 | GI50 [9]: 6.89 nM | LC50 [9]: 10.6 µM | SK-OV3 TGI [9]: 9.73E-08 | GI50 [10]: 22.8 nM | LC50 (concentration for 50% cell killing) [10]: 96 nM | A-549 TGI [10]: 4.68E-08 | GI50 [11]: 2.94 nM | LC50 [11]: 10.6 µM | HMEC-1 TGI [11]: 6.90E-09 | Toxicity Data Liver [12]: 8.37E-08 | GI50 [13]: 938 nM | CC50 [13]: 10.6 µM | LOVO-DOX TGI [13]: 1.23E-06 | GI50 [14]: 1.66 nM | CC50 [14]: 5.94 nM | LNCAP TGI [14]: 3.14E-09 | Toxicity Data Kidney [15]: 2.70E-08 | GI50 [16]: 2.47 nM | CC50 [16]: 37.5 nM | SK-BR3 TGI [16]: 6.54E-09 | GI50 [17]: 0.243 nM | LC50 (50% cell killing) [17]: 0.982 nM | K-562 TGI [17]: 4.88E-10 | GI50 [18]: 7.3 nM | LC50 (concentration for 50% net cell kill) [18]: 1.06 µM | PANC-1 TGI [18]: 4.63E-08 | GI50 [19]: 5.05 nM | CC50 [19]: 10.6 µM | DU-145 TGI [19]: 2.96E-08

COc1cc2c(cc1OC(=O)OC(C)(C)C)CCN[C@]21CS[C@@H]2c3c(OC(=O)[C@H](C)NC(=O)OC(C)(C)C)c(C)c4c(c3[C@H](COC1=O)N1C2[C@H]2c3c(cc(C)c(OC)c3O)C[C@@H]([C@@H]1O)N2C)OCO4 (stereo partly shown) [Compound 175]
Toxicity Data Skeletal [1]: 2.12E-07 | GI50 [2]: 0.641 nM | CC50 [2]: 8.13 nM | IGROV TGI [2]: 2.37E-09 | Toxicity Data Heart [3]: 2.82E-09 | GI50 [4]: 4.15 nM | LC50 (concentration for 50% cell killing) [4]: 10.1 µM | HT-29 TGI [4]: 1.54E-08 | GI50 [5]: 3.97 nM | CC50 [5]: 1.72 µM | IGROV-ET TGI [5]: 9.56E-09 | GI50 [6]: 3.28 nM | CC50 [6]: 25.2 nM | MEL-28 TGI [6]: 6.63E-09 | Toxicity Data Myelo [7]: 1.59E-08 | GI50 [8]: 2.3 nM | LC50 (concentration for 50% cell killing) [8]: 0.00833 µM | LOVO TGI [8]: 4.38E-09 | GI50 [9]: 3.56 nM | LC50 [9]: 10.1 µM | SK-OV3 TGI [9]: 8.77E-09 | GI50 [10]: 2.25 nM | LC50 (concentration for 50% cell killing) [10]: 7.97 nM | A-549 TGI [10]: 4.24E-09 | GI50 [11]: 3.54 nM | LC50 [11]: 10.1 µM | HMEC-1 TGI [11]: 1.29E-08 | Toxicity Data Liver [12]: 3.87E-09 | GI50 [13]: 43.3 nM | CC50 [13]: 10.1 µM | LOVO-DOX TGI [13]: 1.55E-07 | GI50 [14]: 0.382 nM | CC50 [14]: 3.64 nM | LNCAP TGI [14]: 1.12E-09 | Toxicity Data Kidney [15]: 2.84E-09 | GI50 [16]: 1.31 nM | CC50 [16]: 13.2 nM | SK-BR3 TGI [16]: 3.78E-09 | GI50 [17]: 0.293 nM | LC50 (50% cell killing) [17]: 0.775 nM | K-562 TGI [17]: 4.76E-10 | GI50 [18]: 4.38 nM | LC50 (concentration for 50% net cell kill) [18]: 10.1 µM | PANC-1 TGI [18]: 1.33E-08 | GI50 [19]: 3.67 nM | CC50 [19]: 10.1 µM | DU-145 TGI [19]: 9.20E-09
